Measured values from article PMC11157767 (Molecular Cancer, 2024).

System: TFG-MET allograft tumors
Test: RNA-sequencing, differential expression and GSEA of TFG-MET allograft tumors
Assay type: in vivo, mouse
Conditions: for NES / ES: CAP v Veh
Experimental: Error bars display standard error of mean, statistical significance was determined using t-test analysis. (****;p<0.0001, ***;p<0.001, **;p<0.01, *;p<0.05). […] Each dot represents an individual replicate. Error bars display standard error of the mean.
Each dot represents one gene.

CNC(=O)c1ccc(-c2cnc3ncc(Cc4ccc5ncccc5c4)n3n2)cc1F [Capmatinib]
NES (GOMF_METHYL_CPG_BINDING, padj 0.00511198): -1.901 | ES (GOMF_MHC_CLASS_I_PROTEIN_BINDING): 0.5483 | NES (GOMF_MHC_CLASS_I_PROTEIN_BINDING, padj 0.0474647): 1.828 | ES (GOMF_MHC_PROTEIN_BINDING): 0.5523 | NES (GOMF_MHC_PROTEIN_BINDING, padj 0.00543159): 2.003 | ES (GOMF_MHC_PROTEIN_COMPLEX_BINDING): 0.5077 | NES (GOMF_MHC_PROTEIN_COMPLEX_BINDING, padj 0.0199782): 1.841 | ES (GOMF_MOLECULAR_CARRIER_ACTIVITY): -0.4555 | NES (GOMF_MOLECULAR_CARRIER_ACTIVITY, padj 0.0120933): -1.714 | ES (GOMF_MONOCARBOXYLIC_ACID_BINDING): 0.3828 | NES (GOMF_MONOCARBOXYLIC_ACID_BINDING, padj 0.0474647): 1.672 | ES (GOMF_MRNA_3_UTR_AU_RICH_REGION_BINDING): -0.5181 | NES (GOMF_MRNA_3_UTR_AU_RICH_REGION_BINDING, padj 0.0473079): -1.618 | NES (GOMF_NUCLEAR_HORMONE_RECEPTOR_BINDING, padj 0.072562): -1.431 | ES (GOMF_NUCLEAR_IMPORT_SIGNAL_RECEPTOR_ACTIVITY): -0.6033 | NES (GOMF_NUCLEAR_IMPORT_SIGNAL_RECEPTOR_ACTIVITY, padj 0.0320889): -1.75 | ES (GOMF_NUCLEAR_LOCALIZATION_SEQUENCE_BINDING): -0.6311 | NES (GOMF_NUCLEAR_LOCALIZATION_SEQUENCE_BINDING, padj 0.00765978): -1.864 | ES (GOMF_NUCLEOSOMAL_DNA_BINDING): -0.5966 | NES (GOMF_NUCLEOSOMAL_DNA_BINDING, padj 0.0072907): -1.89 | ES (GOMF_N_ACETYLTRANSFERASE_ACTIVITY): -0.4164 | NES (GOMF_N_ACETYLTRANSFERASE_ACTIVITY, padj 0.0419799): -1.576 | ES (GOMF_N_ACYLTRANSFERASE_ACTIVITY): -0.4102 | NES (GOMF_N_ACYLTRANSFERASE_ACTIVITY, padj 0.0206273): -1.607 | ES (GOMF_OXIDOREDUCTASE_ACTIVITY_ACTING_ON_PEROXIDE_AS_ACCEPTOR): 0.4091 | NES (GOMF_OXIDOREDUCTASE_ACTIVITY_ACTING_ON_PEROXIDE_AS_ACCEPTOR, padj 0.0419799): 1.715 | ES (GOMF_PATTERN_RECOGNITION_RECEPTOR_ACTIVITY): 0.5546 | NES (GOMF_PATTERN_RECOGNITION_RECEPTOR_ACTIVITY, padj 0.0257673): 1.913 | ES (GOMF_PEPTIDE_LYSINE_N_ACETYLTRANSFERASE_ACTIVITY): -0.4722 | NES (GOMF_PEPTIDE_LYSINE_N_ACETYLTRANSFERASE_ACTIVITY, padj 0.0420426): -1.64 | ES (GOMF_PEPTIDE_N_ACETYLTRANSFERASE_ACTIVITY): -0.5177 | NES (GOMF_PEPTIDE_N_ACETYLTRANSFERASE_ACTIVITY, padj 0.00513885): -1.848 | ES (GOMF_PHOSPHATIDYLINOSITOL_BINDING): -0.3004 | NES (GOMF_PHOSPHATIDYLINOSITOL_BINDING, padj 0.0651825): -1.368 | ES (GOMF_POLY_A_BINDING): -0.5704 | NES (GOMF_POLY_A_BINDING, padj 0.0381242): -1.705 | ES (GOMF_POLY_PURINE_TRACT_BINDING): -0.5827 | NES (GOMF_POLY_PURINE_TRACT_BINDING, padj 0.00978552): -1.871 | ES (GOMF_POLY_PYRIMIDINE_TRACT_BINDING): -0.5996 | NES (GOMF_POLY_PYRIMIDINE_TRACT_BINDING, padj 0.0067416): -1.9 | ES (GOMF_PROMOTER_SPECIFIC_CHROMATIN_BINDING): -0.4442 | NES (GOMF_PROMOTER_SPECIFIC_CHROMATIN_BINDING, padj 0.0320889): -1.624 | ES (GOMF_PROTEIN_DEMETHYLASE_ACTIVITY): -0.5705 | NES (GOMF_PROTEIN_DEMETHYLASE_ACTIVITY, padj 0.0162496): -1.8078 | ES (GOMF_PROTEIN_DIMERIZATION_ACTIVITY): -0.2556 | NES (GOMF_PROTEIN_DIMERIZATION_ACTIVITY, padj 0.0359639): -1.243 | ES (GOMF_PROTEIN_HETERODIMERIZATION_ACTIVITY): -0.3318 | NES (GOMF_PROTEIN_HETERODIMERIZATION_ACTIVITY, padj 0.0174921): -1.498 | ES (GOMF_PROTEIN_KINASE_ACTIVITY): -0.2726 | NES (GOMF_PROTEIN_KINASE_ACTIVITY, padj 0.0456955): -1.304 | ES (GOMF_PROTEIN_PHOSPHATASE_2A_BINDING): -0.5386 | NES (GOMF_PROTEIN_PHOSPHATASE_2A_BINDING, padj 0.0201355): -1.753 | ES (GOMF_PROTEIN_SERINE_THREONINE_KINASE_ACTIVITY): -0.3032 | NES (GOMF_PROTEIN_SERINE_THREONINE_KINASE_ACTIVITY, padj 0.0120933): -1.428 | ES (GOMF_PROTEIN_TYROSINE_PHOSPHATASE_ACTIVITY): -0.3851 | NES (GOMF_PROTEIN_TYROSINE_PHOSPHATASE_ACTIVITY, padj 0.0351889): -1.569 | ES (GOMF_PROTON_CHANNEL_ACTIVITY): 0.5654 | NES (GOMF_PROTON_CHANNEL_ACTIVITY, padj 0.036911): 1.8848 | ES (GOMF_PROTON_TRANSPORTING_ATP_SYNTHASE_ACTIVITY_ROTATIONAL_MECHANISM): 0.5869 | NES (GOMF_PROTON_TRANSPORTING_ATP_SYNTHASE_ACTIVITY_ROTATIONAL_MECHANISM, padj 0.0283897): 1.877 | ES (GOMF_REGULATORY_RNA_BINDING): -0.5385 | NES (GOMF_REGULATORY_RNA_BINDING, padj 0.00683082): -1.8485 | ES (GOMF_RIBONUCLEOPROTEIN_COMPLEX_BINDING): -0.5611 | NES (GOMF_RIBONUCLEOPROTEIN_COMPLEX_BINDING, padj 7.15005e-11): -2.398 | ES (GOMF_RNA_POLYMERASE_CORE_ENZYME_BINDING): -0.5304 | NES (GOMF_RNA_POLYMERASE_CORE_ENZYME_BINDING, padj 0.00672226): -1.848 | ES (GOMF_RNA_POLYMERASE_II_SPECIFIC_DNA_BINDING_TRANSCRIPTION_FACTOR_BINDING): -0.3093 | NES (GOMF_RNA_POLYMERASE_II_SPECIFIC_DNA_BINDING_TRANSCRIPTION_FACTOR_BINDING, padj 0.0419799): -1.413 | ES (GOMF_RNA_POLYMERASE_II_TRANSCRIPTION_COREGULATOR_BINDING): -0.521 | NES (GOMF_RNA_POLYMERASE_II_TRANSCRIPTION_COREGULATOR_BINDING, padj 0.0452435): -1.627 | ES (GOMF_RNA_POLYMERASE_II_TRANSCRIPTION_COREPRESSOR_BINDING): -0.5717 | NES (GOMF_RNA_POLYMERASE_II_TRANSCRIPTION_COREPRESSOR_BINDING, padj 0.0607303): -1.658 | ES (GOMF_SCAVENGER_RECEPTOR_ACTIVITY): 0.3949 | NES (GOMF_SCAVENGER_RECEPTOR_ACTIVITY, padj 0.0600708): 1.665 | ES (GOMF_SMAD_BINDING): -0.4569 | NES (GOMF_SMAD_BINDING, padj 0.00360904): -1.79 | ES (GOMF_SNORNA_BINDING): -0.7989 | NES (GOMF_SNORNA_BINDING, padj 3.3197e-10): -2.624 | ES (GOMF_SUMO_BINDING): -0.6876 | NES (GOMF_SUMO_BINDING, padj 0.00672226): -1.882 | ES (GOMF_SUMO_TRANSFERASE_ACTIVITY): -0.594 | NES (GOMF_SUMO_TRANSFERASE_ACTIVITY, padj 0.0682113): -1.626 | ES (GOMF_S_ADENOSYLMETHIONINE_DEPENDENT_METHYLTRANSFERASE_ACTIVITY): -0.5424 | NES (GOMF_S_ADENOSYLMETHIONINE_DEPENDENT_METHYLTRANSFERASE_ACTIVITY, padj 2.7667e-10): -2.336 | ES (GOMF_THIOLESTER_HYDROLASE_ACTIVITY): 0.4211 | NES (GOMF_THIOLESTER_HYDROLASE_ACTIVITY, padj 0.0377403): 1.7345 | ES (GOMF_TRANSCRIPTION_COREGULATOR_BINDING): -0.4265 | NES (GOMF_TRANSCRIPTION_COREGULATOR_BINDING, padj 0.0442278): -1.612 | ES (GOMF_TRANSCRIPTION_COREPRESSOR_BINDING): -0.5161 | ES (GOMF_TRANSITION_METAL_ION_BINDING): -0.2675 | NES (GOMF_TRANSITION_METAL_ION_BINDING, padj 0.0113612): -1.302 | ES (GOMF_TRANSLATION_REGULATOR_ACTIVITY): -0.5628 | NES (GOMF_TRANSLATION_REGULATOR_ACTIVITY, padj 1.90601e-11): -2.407 | ES (GOMF_TRNA_BINDING): -0.6579 | NES (GOMF_TRNA_BINDING, padj 2.7667e-10): -2.532 | ES (GOMF_UBIQUITIN_LIKE_PROTEIN_BINDING): -0.3584 | NES (GOMF_UBIQUITIN_LIKE_PROTEIN_BINDING, padj 0.0474647): -1.467 | ES (GOMF_UNFOLDED_PROTEIN_BINDING): -0.3758 | NES GOCC_NUCLEOLUS (GSEA CAP vs Veh, C5 GO CC, padj 2.86725e-63): -2.612 | NES GOCC_RIBONUCLEOPROTEIN_COMPLEX (GSEA CAP vs Veh, C5 GO CC, padj 3.5373e-43): -2.521 | NES GOCC_NUCLEAR_BODY (GSEA CAP vs Veh, C5 GO CC, padj 3.83827e-29): -2.196 | NES GOCC_PRERIBOSOME (GSEA CAP vs Veh, C5 GO CC, padj 8.43804e-27): -3.164 | NES GOCC_CHROMOSOMAL_REGION (GSEA CAP vs Veh, C5 GO CC, padj 8.8925e-17): -2.317
